Biological target: T1, TRAP1 enzyme (Homo sapiens, UniProt Q12931)
T1 construct: 150 nM Trap1 enzyme was incubated with various concentrations of the test compound
T1 sequence (Q12931 60-704): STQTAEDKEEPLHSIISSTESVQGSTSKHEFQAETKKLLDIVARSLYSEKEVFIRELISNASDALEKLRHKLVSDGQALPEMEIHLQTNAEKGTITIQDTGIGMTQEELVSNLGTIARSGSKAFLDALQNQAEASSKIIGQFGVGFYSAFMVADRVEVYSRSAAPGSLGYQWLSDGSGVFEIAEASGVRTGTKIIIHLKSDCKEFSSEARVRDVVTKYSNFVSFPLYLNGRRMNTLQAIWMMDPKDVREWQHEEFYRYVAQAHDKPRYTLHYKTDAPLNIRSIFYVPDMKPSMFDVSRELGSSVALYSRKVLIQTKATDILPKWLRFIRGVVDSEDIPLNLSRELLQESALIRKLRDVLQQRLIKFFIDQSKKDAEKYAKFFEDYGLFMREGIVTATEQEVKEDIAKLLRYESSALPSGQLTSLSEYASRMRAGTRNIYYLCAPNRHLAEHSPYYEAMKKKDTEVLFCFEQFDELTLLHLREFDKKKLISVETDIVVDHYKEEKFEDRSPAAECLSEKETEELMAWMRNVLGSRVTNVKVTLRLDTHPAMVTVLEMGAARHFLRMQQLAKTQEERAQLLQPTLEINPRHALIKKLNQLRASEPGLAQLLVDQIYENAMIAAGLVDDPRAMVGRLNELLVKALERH
Test: ADP Glo assay of TRAP1 ATPase activity
Type: biochemical
Settings: for EC50: concentration for half maximal activation, read-out: ADP GLO DRC: GeoMean EC50; for Emax: maximal percent activation, read-out: ADP GLO DRC: Mean Emax; for activation at 50 µM: 1 h, compound concentration 50 μM, read-out: ADP-Glo Percent Activation at 50 μM
In short: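 ADP-Glo luminescence quantifying ADP from 150 nM TRAP1 preincubated 30 min at 37° C with compound (0.79–100 μM), then 20 μM ATP for 60 min at 37° C. Buffer: 25 mM Pipes pH 7.5, 40 mM KCl, 0.05 mM MgCl2, EGTA, BSA, detergents. ADP from ATP/ADP standard curve; Emax and EC50 from sigmoidal fit.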

| EC50 | Emax | activation at 50 µM | SMILES |
| --- | --- | --- | --- |
| 10 to 20 µM | 119 to 159% |  | COc1ncc(NC(=O)c2csc(-c3cc(F)c(F)c(F)c3)n2)cc1S(=O)(=O)Nc1cc(C)n(C(C)C)n1 [compound 2407] |
| < 10 µM | 160 to 199% |  | Cc1cccc(C)c1NS(=O)(=O)c1cc(NC(=O)c2csc(-c3ccccc3)n2)cnc1OCC(O)CO (stereo not shown) [compound 2418] |
| < 10 µM | 160 to 199% |  | COc1ncc(NC(=O)c2csc(-c3cccc(Cl)n3)n2)cc1S(=O)(=O)Nc1c(C)cccc1C [compound 2445] |
| < 10 µM | 200 to 300% |  | COc1ncc(NC(=O)c2csc(-c3cccc(OCC(O)CO)n3)n2)cc1S(=O)(=O)Nc1c(C)cccc1C (stereo not shown) [compound 2463] |
| < 10 µM | 160 to 199% |  | COc1ncc(NC(=O)c2ncc(-c3ccccc3)o2)cc1S(=O)(=O)Nc1c(C)cccc1C [compound 2470] |
| 20 to 100 µM | 160 to 199% |  | COc1ncc(NC(=O)c2c[nH]c(C(F)(F)F)n2)cc1S(=O)(=O)Nc1c(C)cccc1C [compound 2474] |
| < 10 µM | 119 to 159% |  | [2H]c1c([2H])c([2H])c(C([2H])([2H])[2H])c(NS(=O)(=O)c2cc(NC(=O)c3csc(-c4ccccc4)n3)cnc2OC)c1[2H] [compound 2492] |
| 10 to 20 µM | 160 to 199% |  | COc1ncc(NC(=O)c2csc(C(C)C)n2)cc1S(=O)(=O)Nc1c(C)cccc1C [compound 2496] |
| < 10 µM | 160 to 199% |  | COc1ncc(NC(=O)c2coc(-c3ccccc3)n2)cc1S(=O)(=O)Nc1c(C2CC2)cccc1C1CC1 [compound 2497] |
| < 10 µM | 119 to 159% |  | [2H]c1c([2H])c([2H])c(-c2nc(C(=O)Nc3cnc(OC)c(S(=O)(=O)Nc4c(C)cccc4C)c3)cs2)c([2H])c1[2H] [compound 2500] |
| 20 to 100 µM | 160 to 199% |  | COc1ncc(NC(=O)c2csc(C)n2)cc1S(=O)(=O)Nc1c(C)cccc1C [compound 2501] |
| 10 to 20 µM | 119 to 159% |  | COc1ncc(NC(=O)c2csc(Br)n2)cc1S(=O)(=O)Nc1c(C)cccc1C [compound 2502] |
| 20 to 100 µM | 200 to 300% |  | COc1ncc(NC(=O)c2csc(-c3ccccc3)n2)cc1S(=O)(=O)Nc1c(C)cccc1P(C)(C)=O [compound 2506] |
| 10 to 20 µM | 119 to 159% |  | COc1ncc(NC(=O)c2ncc(-c3ccccc3)o2)cc1S(=O)(=O)Nc1nc(C(F)(F)F)ccc1C [compound 2512] |
|  |  | 181 to 352% | COc1ncc(NC(=O)c2ccc3c(c2)CC(=O)N3)cc1S(=O)(=O)Nc1c(C)cccc1C [compound 2523] |
|  |  | 151 to 180% | COc1ncc(NC(=O)c2c(C)noc2C)cc1S(=O)(=O)Nc1c(C)cccc1C [compound 2524] |
|  |  | 151 to 180% | COc1ncc(NC(=O)c2cccc3c2CCC(=O)N3)cc1S(=O)(=O)Nc1c(C)cccc1C [compound 2525] |

| EC50 | Emax | activation at 50 µM | SMILES |
| --- | --- | --- | --- |
|  |  | 181 to 352% | COc1ncc(NC(=O)c2c3c(nn2C)CCC3)cc1S(=O)(=O)Nc1c(C)cccc1C [compound 2528] |
|  |  | 181 to 352% | COc1ncc(NC(=O)c2ccc(C#N)cc2)cc1S(=O)(=O)Nc1c(C)cccc1C [compound 2529] |
|  |  | 151 to 180% | COc1ncccc1C(=O)Nc1cnc(OC)c(S(=O)(=O)Nc2c(C)cccc2C)c1 [compound 2535] |
|  |  | 151 to 180% | COc1ncc(NC(=O)c2cccc(C(F)(F)F)c2)cc1S(=O)(=O)Nc1c(C)cccc1C [compound 2536] |
|  |  | 120 to 150% | COc1ncc(NC(=O)c2ccc3ncnn3c2)cc1S(=O)(=O)Nc1c(C)cccc1C [compound 2537] |
|  |  | 120 to 150% | COc1ncc(NC(=O)c2cn(C(C)C)nn2)cc1S(=O)(=O)Nc1c(C)cccc1C [compound 2538] |
|  |  | 181 to 352% | COc1ncc(NC(=O)c2cccn2C)cc1S(=O)(=O)Nc1c(C)cccc1C [compound 2539] |
|  |  | 181 to 352% | COc1ncc(NC(=O)c2ccc(N3CCCCC3)nc2)cc1S(=O)(=O)Nc1c(C)cccc1C [compound 2544] |
|  |  | 151 to 180% | COc1cncc(C(=O)Nc2cnc(OC)c(S(=O)(=O)Nc3c(C)cccc3C)c2)c1 [compound 2545] |
|  |  | 181 to 352% | COc1ncc(NC(=O)c2ccccc2C)cc1S(=O)(=O)Nc1c(C)cccc1C [compound 2548] |
|  |  | 120 to 150% | COc1cccnc1C(=O)Nc1cnc(OC)c(S(=O)(=O)Nc2c(C)cccc2C)c1 [compound 2549] |
|  |  | 120 to 150% | COc1ncc(NC(=O)c2cn(C)nc2C(F)F)cc1S(=O)(=O)Nc1c(C)cccc1C [compound 2551] |
|  |  | 120 to 150% | COc1ncc(NC(=O)c2ccnn2C(C)C)cc1S(=O)(=O)Nc1c(C)cccc1C [compound 2553] |
|  |  | 181 to 352% | COc1ncc(NC(=O)c2ccc(N3CCOCC3)nc2)cc1S(=O)(=O)Nc1c(C)cccc1C [compound 2554] |
|  |  | 151 to 180% | COc1ccc(C(=O)Nc2cnc(OC)c(S(=O)(=O)Nc3c(C)cccc3C)c2)cn1 [compound 2556] |
|  |  | 151 to 180% | COc1ncc(NC(=O)c2nc3ccccn3n2)cc1S(=O)(=O)Nc1c(C)cccc1C [compound 2558] |
|  |  | 181 to 352% | COc1ncc(NC(=O)c2ccn(C3CC3)n2)cc1S(=O)(=O)Nc1c(C)cccc1C [compound 2562] |

Second part, the compound before the results:

| SMILES | EC50 | Emax | activation at 50 µM |
| --- | --- | --- | --- |
| COc1ncc(NC(=O)c2coc(-c3ccccc3)n2)cc1S(=O)(=O)Nc1nc(C(C)(C)C)ns1 [compound 2403] | 20 to 100 µM | 200 to 300% |  |
| COc1ncc(NC(=O)c2csc(-c3ccccc3OCC(O)CO)n2)cc1S(=O)(=O)Nc1c(C)cccc1C (stereo not shown) [compound 2427] | < 10 µM | 200 to 300% |  |
| COc1ncc(NC(=O)c2csc(-c3ccccc3)n2)cc1S(=O)(=O)N(CC(O)CO)c1ccc(Cl)cc1 (stereo not shown) [compound 2431] | < 10 µM | 160 to 199% |  |
| COc1ncc(NC(=O)c2coc(-c3ccccc3)n2)cc1S(=O)(=O)Nc1cccc2cnc(C)cc12 [compound 2447] | 10 to 20 µM | 160 to 199% |  |
| COc1ncc(NC(=O)c2csc(-c3cccc(OCC4COC(C)(C)O4)n3)n2)cc1S(=O)(=O)Nc1c(C)cccc1C (stereo not shown) [compound 2454] | < 10 µM | 119 to 159% |  |
| COc1ncc(NC(=O)c2csc(-c3cc(F)c(F)c(F)c3)n2)cc1S(=O)(=O)Nc1c(C)csc1C [compound 2466] | < 10 µM | 160 to 199% |  |
| COc1ncc(NC(=O)c2ncoc2C(C)C)cc1S(=O)(=O)Nc1ccc(Cl)cc1 [compound 2487] | 10 to 20 µM | 160 to 199% |  |
| [2H]c1c([2H])c([2H])c(C([2H])([2H])[2H])c(NS(=O)(=O)c2cc(NC(=S)c3coc(-c4ccccc4)n3)cnc2OC)c1[2H] [compound 2493] | 20 to 100 µM | 160 to 199% |  |
| COc1ncc(NC(=O)c2csc(C(F)(F)F)n2)cc1S(=O)(=O)Nc1c(C)cccc1C [compound 2498] | 10 to 20 µM | 160 to 199% |  |
| COc1ncc(NC(=O)c2csc(-c3ccccc3)n2)cc1S(=O)(=O)Nc1c(C2CC2)cccc1C1CC1 [compound 2499] | < 10 µM | 160 to 199% |  |
| COc1ncc(NC(=O)c2ccn3cnnc3c2)cc1S(=O)(=O)Nc1c(C)cccc1C [compound 2526] |  |  | 120 to 150% |
| COc1ncc(NC(=O)c2ccc(OC(F)(F)F)cc2)cc1S(=O)(=O)Nc1c(C)cccc1C [compound 2531] |  |  | 120 to 150% |
| COc1ncc(NC(=O)c2ccc(N3CCCC3=O)cc2)cc1S(=O)(=O)Nc1c(C)cccc1C [compound 2532] |  |  | 151 to 180% |
| COc1ncc(NC(=O)c2ccc3c(c2)nnn3C)cc1S(=O)(=O)Nc1c(C)cccc1C [compound 2541] |  |  | 120 to 150% |
| COc1ncc(NC(=O)c2ccc(F)cc2)cc1S(=O)(=O)Nc1c(C)cccc1C [compound 2542] |  |  | 151 to 180% |
| COc1ncc(NC(=O)c2cncc(N(C)C)n2)cc1S(=O)(=O)Nc1c(C)cccc1C [compound 2543] |  |  | 181 to 352% |
| COc1cnccc1C(=O)Nc1cnc(OC)c(S(=O)(=O)Nc2c(C)cccc2C)c1 [compound 2546] |  |  | 120 to 150% |
| CCN1CCN(Cc2ccccc2C(=O)Nc2cnc(OC)c(S(=O)(=O)Nc3c(C)cccc3C)c2)CC1 [compound 2547] |  |  | 120 to 150% |
| COc1ncc(NC(=O)c2ccccc2C(F)(F)F)cc1S(=O)(=O)Nc1c(C)cccc1C [compound 2550] |  |  | 151 to 180% |
| COc1ncc(NC(=O)c2cnn(C3CC3)c2)cc1S(=O)(=O)Nc1c(C)cccc1C [compound 2552] |  |  | 151 to 180% |
| COc1ncc(NC(=O)c2cc(C(C)C)no2)cc1S(=O)(=O)Nc1c(C)cccc1C [compound 2555] |  |  | 181 to 352% |
| COc1ncc(NC(=O)c2cnn3c2CCC3)cc1S(=O)(=O)Nc1c(C)cccc1C [compound 2557] |  |  | 151 to 180% |
| COc1ncc(NC(=O)c2ccnn2C)cc1S(=O)(=O)Nc1c(C)cccc1C [compound 2559] |  |  | 120 to 150% |
| COc1ncc(NC(=O)c2ccc(S(=O)(=O)NC(C)(C)C)cc2)cc1S(=O)(=O)Nc1c(C)cccc1C [compound 2561] |  |  | 181 to 352% |

— patent US20230159509A1 (Amathus Therapeutics, Inc., priority 2020, published 2023)
